# Test results from patent US20080249074A1, “Composition for the Transdermal Administration of Physiologically Active Agents” (LABORATORIOS BELMAC, S.A., priority 2005, published 2008).
# System: carrageenan-induced rat paw plantar edema
# Assay: Anti-inflammatory effect of oleuropein compositions in the form of an oil
# Assay type: in vivo
# Settings: for increase % vs. V0 / inhibition % vs. blank-vehicle / increase vs. V0 % / inhibition vs. blank-vehicle %: topical; for increase % vs. V0 / inhibition % vs. blank-vehicle: V1, 60 minutes; for increase vs. V0 % / inhibition vs. blank-vehicle %: V2, 180 minutes
# Description: The test was performed according to the method disclosed by Winter et al. (Proc. Soc. Exp. Biol. Med. 1962; vol. 111, pp. 544-547), adapted to the rat paw. The method consisted in the injection of 100 μl of a 0.75% carrageenan solution in physiological saline in the plantar face of the left hind paw of the rat. The volume of the paws was determined by a plethysmometer just before the injection of the carrageenan (V0), 60 minutes after the injection (V1) and 180 minutes (V2) after the injection.
# The tested substances were administered topically according to a modification of the method disclosed by Mass6 et al. (Rev. Farmacol. Clin. Exp. 1990, vol. 7, p. 85), following a blind and randomized trial. 100 μl of the substance to be tested were applied over the paw of the animal, spread over the whole surface of the paw, massaging until the complete absorption. The application was repeated 2 times, namely 18 h before the injection of carrageenan and 60 minutes before said injection. Simultaneously to the application, 30 ml/kg of distilled water were administered orally.
# Using the method described in Example 7, the anti-inflammatory effect of the four compositions in the form of an oil prepared according to Example 1, which comprised a 0.1%, 0.2%, 0.4%, and 0.8% of oleuropein w/w, respectively, was studied. The blank-vehicle was prepared by the same method as the compositions tested excluding the active ingredient.
# The mean±S.E.M. of the volumes of the animal paws was calculated for the three observation periods V0, V1 and V2. The average values of every experimental group were used for the determination of the average increase of the volume of the paws as an effect of the injection of carrageenan during the periods of observation V1 and V2 with regard to the initial volume (V0), and, then, the percentages of the variation of said values with regard to the blank-vehicle group were determined. Finally, the 50% Effective Concentration (EC 50) was calculated through a linear regression optimized by the least squares method. The evaluation of the statistic signification of the variation was performed by the Student's t-test for independent data using a p<0.05 level to establish the difference criteria. […] However, as estimation, it is obtained that EC 50 of the oleuropein composition in the form of an oil is about 0.7%.
structure (smiles),measurement,setting,value
"C/C=C1/[C@H](O[C@@H]2O[C@H](CO)[C@@H](O)[C@H](O)[C@H]2O)OC=C(C(=O)OC)[C@H]1CC(=O)OCCc1ccc(O)c(O)c1 [Oleuropein, oleuropein]",increase % vs. V0,0.1% (w/w) oleuropein oil,27.39%
same,inhibition % vs. blank-vehicle,0.1% (w/w) oleuropein oil,14.62%
same,increase vs. V0 %,0.1% (w/w) oleuropein oil,43.59%
same,inhibition vs. blank-vehicle %,0.1% (w/w) oleuropein oil,12.38%
same,increase % vs. V0,0.2% (w/w) oleuropein oil,24.75%
same,inhibition % vs. blank-vehicle,0.2% (w/w) oleuropein oil,22.86%
same,increase vs. V0 %,0.2% (w/w) oleuropein oil,36.80%
same,inhibition vs. blank-vehicle %,0.2% (w/w) oleuropein oil,26.03%
same,increase % vs. V0,0.4% (w/w) oleuropein oil,18.55%
same,inhibition % vs. blank-vehicle,0.4% (w/w) oleuropein oil,42.19%
same,increase vs. V0 %,0.4% (w/w) oleuropein oil,26.80%
same,inhibition vs. blank-vehicle %,0.4% (w/w) oleuropein oil,46.13%
same,increase % vs. V0,0.8% (w/w) oleuropein oil,16.13%
same,inhibition % vs. blank-vehicle,0.8% (w/w) oleuropein oil,49.73%
same,increase vs. V0 %,0.8% (w/w) oleuropein oil,25.71%
same,inhibition vs. blank-vehicle %,0.8% (w/w) oleuropein oil,48.31%
same,"maximum estimated effect, inhibition",oily composition of oleuropein,about 50%
same,concentration up to which the effect is lineal,oleuropein concentration in the oil composition,about 0.4%
same,50% Effective Concentration (EC 50),"oleuropein concentration in the oil composition, linear regression by least squares, estimation",about 0.7%
